Measured values as given in ChEMBL document CHEMBL5512618, “MYC the oncogene from hell: Novel opportunities for cancer therapy” (Eur J Med Chem, 2024).
Blank lines part the entries; values can stand above or below the compound they belong to.

How the values were obtained:
HL-60 = test: Inhibition of cell development in human HL-60 cells; type: functional, cell-based
c-Myc/Max = c-Myc/Max (Homo sapiens, UniProt P01106+P61244); test: Inhibition of His6-tagged Max (151 residues)(unknown origin) expressed in bacterial system/recombinant MYC ) (unknown origin) expressed in bacterial system by EMSA
[1] = Lipophilicity, logP of compound; type: physicochemical; settings: octanol/water
Burkitts lymphoma cell = test: Inhibition of cell growth in human Burkitts lymphoma cells; type: functional, cell-based
[2] = target: Myc proto-oncogene protein (Homo sapiens, UniProt P01106); test: Binding affinity to CM5 sensor chip immobilized MYC bHLHZip domain (unknown origin) assessed as dissociation constant by SPR analysis

Compound: COC(=O)c1ccc(Nc2ccc([N+](=O)[O-])c3nonc23)c(-c2ccc(C)cc2)c1
- IC50 (c-Myc/Max): 34 µM

Compound: Cn1nc(C(F)(F)F)cc1-c1ccc(OCc2ccc(Cl)cc2)c(-c2ccc(Cl)c(C(F)(F)F)c2)c1O
- logP [1]: 8.4

Compound: COc1ccc2nc3cc(/N=N/c4ccc(N)nc4N)ccc3c(N)c2c1
- IC50 (Burkitts lymphoma cell): 0.5 µM
- Kd [2]: 1.6 µM

Second part, the compound after the results:

- IC50 (HL-60): 7.2 µM
Compound: O=[N+]([O-])c1ccc(Nc2ccccc2-c2ccccc2)c2nonc12

- IC50 (HL-60): 30 µM
Compound: O=C(O)c1ccc(Nc2ccc([N+](=O)[O-])c3nonc23)cc1
